Data from patent US6064908A, “Device for ionophoresis comprising at least a membrane electrode assembly, for the transcutaneous administration of active principles to a subject” (Elf Aquitaine, priority 1996, dated 2000).

System: nude rat skin
Test: transdermic passage of pentasaccharide sodium salt by iontophoresis at set intensity through nude rat skin
Assay type: in vitro ADME
Conditions: for Utilization factor of the active principle: quantity at 22 hours/initial quantity
Description: The procedure was carried out in iontophoresis cells with identical structure. Each iontophoresis cell consisted of three coaxial, adjacent cylindrical compartments of 2 cm^2 cross section, namely, in this order, a donor compartment, a receiver compartment and a back electrode compartment, these three compartments each being separated from the next in leaktight fashion by a piece of nude rat skin from the same batch, serving as a skin sample for studying the transdermic diffusion. […] The receiver compartment, with a volume of 10 ml, contained a 9 g/liter solution of NaCl and was agitated using a magnetic bar. The back electrode compartment, with a volume of 0.5 ml, contained a 2% by weight aqueous solution of NaCl. At its end opposite the receiver compartment, the donor compartment was fitted with a negative electrode or cathode consisting of a 15 μm thick film of silver chloridized on one face to contain an AgCl layer corresponding to 2 mAh/cm^2. In the same way as the donor compartment, the back electrode compartment was equipped with a positive electrode or anode (back electrode) consisting of a 15 μm silver film weakly chloridized on the surface (a quantity of AgCl corresponding to 0.1 mAh/cm^2). The chloridized face of each electrode was turned towards the rat skin sample.
The rat skin samples had had the subcutaneous tissues removed and were preserved by freezing at -40° C. until they were fitted in the iontophoresis cell, with the dermal faces turned towards the receiver compartment, after having spent 15 minutes in physiological salt solution.
For each of the tests which were carried out, six identical iontophoresis cells were started up simultaneously. The active exchange surface was 2 cm^2 for each skin sample. […]
At the end of the said period, an aliquot of the medium contained in the receiver compartment was taken, and the quantity of pentasaccharide which had passed through the skin separating the donor and receiver compartments of each cell was determined by assaying. A second sample was taken 22 hours after the start of each experiment, i.e. 17 hours after the end of the electric signal, in order to allow a significant proportion of the quantities of pentasaccharide active principle held in the skin sample to diffuse in the absence of subcutaneous blood circulation.
Five tests 1a to 1e were carried out as follows:
For each of the tests, the average antifactor Xa activity per ml of medium was determined on aliquots taken from the receiver compartments of the six cells, this representing the quantity of pentasaccharide which had diffused into these compartments after the 5 hours of applying the current and 22 hours after the start of each experiment, i.e. 17 hours after the end of the said current.
The assay of the pentasaccharide in the receiver compartment was based on investigating its antifactor Xa activity. […] The calibration curve was established using a "Golden Standard" pentasaccharide solution to which an antifactor Xa activity equal to 13 units per ml was assigned.
The data presented in this table are average results calculated over a series of six identical cells receiving the same quantities of electricity.

[1] = Test 1a: no membrane, 5 mg/cm^2, 1 mAh/cm^2
[2] = Test 1b: no membrane, 1 mg/cm^2, 1 mAh/cm^2
[3] = Test 1c: cellulose acetate/POEG membrane 75 μm, 1 mg/cm^2, 0.9 mAh/cm^2
[4] = Test 1e: PEBAX MV 1074 membrane 50 μm, hydrogel, 0.5 mg/cm^2, 1 mAh/cm^2
[5] = Test 1d (PEBAX MV 1041 membrane) vs Test 1b (no membrane)
[6] = Test 1d: PEBAX MV 1041 membrane 50 μm, 1 mg/cm^2, 1 mAh/cm^2

O=C(O)C1OC(OC2C(COS(=O)(=O)O)OC(OC3C(C(=O)O)OC(OC4C(COS(=O)(=O)O)OC(O)C(NS(=O)(=O)O)C4O)C(OS(=O)(=O)O)C3O)C(NS(=O)(=O)O)C2OS(=O)(=O)O)C(O)C(O)C1OC1OC(COS(=O)(=O)O)C(O)C(O)C1NS(=O)(=O)O (stereo not drawn) [pentasaccharide]
Quantity of active principle at 5 hours (Passive, no current, 5 mg/cm^2): 1 μg/cm^2
Quantity of active principle at 22 hours (Passive, no current, 5 mg/cm^2): 1.5 μg/cm^2
Quantity of active principle per mAh (Passive, no current, 5 mg/cm^2): 1.5 μg/cm^2
aXa activity/ml at 5 hours (Passive, no current, 5 mg/cm^2): 0.2 mL⁻¹
aXa activity/ml at 22 hours (Passive, no current, 5 mg/cm^2): 0.3 mL⁻¹
Utilization factor of the active principle (Passive, no current, 5 mg/cm^2): 0.03%
Quantity of active principle at 5 hours [1]: 115 μg/cm^2
Quantity of active principle at 22 hours [1]: 150 μg/cm^2
Quantity of active principle per mAh [1]: 150 μg/cm^2
aXa activity/ml at 5 hours [1]: 23 mL⁻¹
aXa activity/ml at 22 hours [1]: 30 mL⁻¹
Utilization factor of the active principle [1]: 3%
Quantity of active principle at 5 hours [2]: 110 μg/cm^2
Quantity of active principle at 22 hours [2]: 140 μg/cm^2
Quantity of active principle per mAh [2]: 140 μg/cm^2
aXa activity/ml at 5 hours [2]: 22 mL⁻¹
aXa activity/ml at 22 hours [2]: 28 mL⁻¹
Utilization factor of the active principle [2]: 14%
Quantity of active principle at 5 hours [3]: 75 μg/cm^2
Quantity of active principle at 22 hours [3]: 110 μg/cm^2
Quantity of active principle per mAh [3]: 125 μg/cm^2
aXa activity/ml at 5 hours [3]: 15 mL⁻¹
aXa activity/ml at 22 hours [3]: 20 mL⁻¹
Utilization factor of the active principle [3]: 11%
Quantity of active principle at 5 hours [4]: 245 μg/cm^2
Quantity of active principle at 22 hours [4]: 310 μg/cm^2
Quantity of active principle per mAh [4]: 310 μg/cm^2
aXa activity/ml at 5 hours [4]: 49 mL⁻¹
aXa activity/ml at 22 hours [4]: 62 mL⁻¹
Utilization factor of the active principle [4]: 62%
active principle depletion factor of the donor electrode assembly (in words) [5]: increased very substantially
quantity of active principle administered per unit quantity of electricity (in words) [5]: increased very substantially
Quantity of active principle at 5 hours [6]: 295 μg/cm^2
Quantity of active principle at 22 hours [6]: 390 μg/cm^2
Quantity of active principle per mAh [6]: 390 μg/cm^2
aXa activity/ml at 5 hours [6]: 59 mL⁻¹
aXa activity/ml at 22 hours [6]: 70 mL⁻¹
Utilization factor of the active principle [6]: 39%
passive transport of the pentasaccharide (in words) (no current): very low
